Patent US10800725B2, “Arylpropionyl-triketone antibacterial agents” (priority 2010, dated 2020)
In brackets after ≈: the same amount, converted by molar mass.

Experiments:
[1] = test system: Escherichia coli D21f2tolC; experiment: MIC, spiral gradient endpoint assay; details: read-out: MIC E. coli D21f2tolC
[2] = target: S. aureus RNA polymerase core enzyme + σA (Staphylococcus aureus (strain NCTC 8325 / PS 47), UniProt P47768+Q2G0N5); experiment: Fluorescence-detected RNA polymerase assay, S. aureus RNAP; format: biochemical
Experimental: (§1) Fluorescence-detected RNA polymerase assays with E. coli RNA polymerase were performed by a modification of the procedure of Kuhlman et al., 2004 [Kuhlman, P., Duff, H. & Galant, A. (2004) A fluorescence-based assay for multisubunit DNA-dependent RNA polymerases. Anal. Biochem. 324, 183-190]. Reaction mixtures contained (20 μl): 0-100 nM test compound, 75 nM E. coli RNA polymerase σ^70 holoenzyme, 20 nM 384 bp DNA fragment containing the bacteriophage T4 N25 promoter, 100 μM ATP, 100 μM GTP, 100 μM UTP, 100 μM CTP, 50 mM Tris-HCl, pH 8.0, 100 mM KCl, 10 mM MgCl2, 1 mM DTT, 10 μg/ml bovine serum albumin, and 5.5% glycerol. Reaction components other than DNA and NTPs were pre-incubated for 10 min at 37° C. Reactions were carried out by addition of DNA and incubation for 5 min at 37° C., followed by addition of NTPs and incubation for 60 min at 37° C. DNA was removed by addition of 1 μl 5 mM CaCl2 and 2 U DNaseI (Ambion, Inc.), followed by incubation for 90 min at 37° C. RNA was quantified by addition of 100 μl RiboGreen RNA Quantitation Reagent (Invitrogen, Inc.; 1:500 dilution in Tris-HCl, pH 8.0, 1 mM EDTA), followed by incubation for 10 min at 25° C., followed by measurement of fluorescence intensity [excitation wavelength=485 nm and emission wavelength=535 nm; QuantaMaster QM1 spectrofluorometer (PTI, Inc.)]. IC50 is defined as the concentration of inhibitor resulting in 50% inhibition of RNA polymerase activity.
(§2) Fluorescence-detected RNA polymerase assays with S. aureus RNA polymerase were performed as in Example 21.1, using reaction mixtures containing (20 μl): 0-100 nM test compound, 75 nM S. aureus RNA polymerase core enzyme, 300 nM S. aureus σ^A, 20 nM 384 bp DNA fragment containing the bacteriophage T4 N25 promoter, 100 μM ATP, 100 μM GTP, 100 μM UTP, 100 μM CTP, 40 mM Tris-HCl, pH 8.0, 80 mM NaCl, 5 mM MgCl2, 2.5 mM DTT, and 12.7% glycerol. IC50 is defined as the concentration of inhibitor resulting in 50% inhibition of RNA polymerase activity.

[3] = test system: Moraxella catarrhalis ATCC 25238; experiment: MIC, spiral gradient endpoint assay (GC II agar, 5% CO2); details: ATCC25238, read-out: MIC M. catarrhalis 25238
[4] = test system: Mycobacterium tuberculosis H37Rv; experiment: MIC, microplate Alamar Blue assay; details: read-out: MIC M. tuberculosis H37Rv
[5] = test system: Enterococcus faecalis ATCC 19433; experiment: MIC, spiral gradient endpoint assay; details: ATCC19433, read-out: MIC E. faecalis 19433
[6] = target: E. coli RNA polymerase σ70 holoenzyme (Escherichia coli (strain K12), UniProt P0A8T7+P0A8V2); experiment: Fluorescence-detected RNA polymerase assay, E. coli RNAP; format: biochemical
Experimental: as §1

[7] = test system: Streptococcus pyogenes ATCC 12344; experiment: MIC, spiral gradient endpoint assay (GC II agar, 5% CO2); details: ATCC12344, read-out: MIC S. pyogenes 12344
[8] = test system: Bacillus anthracis Vollum-1b; experiment: microbe, parasite or virus in culture; format: cell-based; details: VOLLUM1B, read-out: MIC B. anthracis Vollum-1b
[9] = test system: Francisella tularensis SCHU4; experiment: microbe, parasite or virus in culture; format: cell-based; details: SCHU4, read-out: MIC F. tularensis SCHU4
[10] = test system: Streptococcus pneumoniae ATCC 49619; experiment: MIC, spiral gradient endpoint assay (GC II agar, 5% CO2); details: ATCC49619, read-out: MIC S. pneumoniae 49619
[11] = target: M. tuberculosis RNA polymerase core enzyme + σA (Mycobacterium tuberculosis (strain ATCC 25618 / H37Rv), UniProt P9WGY7+P9WGY9); experiment: Fluorescence-detected RNA polymerase assay, M. tuberculosis RNAP; format: biochemical
Experimental: as §1
as §2, with “M. tuberculosis” for “S. aureus”

[12] = test system: Staphylococcus aureus ATCC 12600; experiment: MIC, spiral gradient endpoint assay; details: ATCC12600, read-out: MIC S. aureus 12600
[13] = test system: Staphylococcus aureus BAA-1707 MRSA (MW2); experiment: MIC, spiral gradient endpoint assay; details: read-out: MIC S. aureus MRSA 1707
[14] = test system: Staphylococcus aureus BAA-1717 MRSA (USA300); experiment: MIC, spiral gradient endpoint assay; details: read-out: MIC S. aureus MRSA 1717
[15] = test system: Enterococcus faecium ATCC 19434; experiment: MIC, spiral gradient endpoint assay; details: ATCC19434, read-out: MIC E. faecium 19434
[16] = test system: Staphylococcus aureus ATCC 13709 MSSA; experiment: MIC, spiral gradient endpoint assay; details: read-out: MIC S. aureus 13709

Row | SMILES | MIC [1] | IC50 [2] | MIC [3] | MIC [4] | MIC [5] | IC50 [6] | MIC [7] | MIC [8] | MIC [9] | MIC [10] | IC50 [11] | MIC [12] | MIC [13] | MIC [14] | MIC [15] | MIC [16]
1 | CC(C)CCC1=C(O)C(CCC(C)C)(CCC(C)C)C(=O)C(C(=O)CCc2ccccc2Cl)=C1O [Compound 1, 3,5-dihydroxy-2-(3-(2-chlorophenyl)propanoyl)-4,6,6-triisopentylcyclohexa-2,4-dienone] | 24 µg/mL (≈ 47.7 µM) | 5.7 µM | > 40 µg/mL | 50 µg/mL (≈ 99.4 µM) | 2 µg/mL (≈ 3.98 µM) | 2.1 µM | 19 µg/mL (≈ 37.8 µM) | 0.049 µg/mL (≈ 0.0974 µM) | 6.25 µg/mL (≈ 12.4 µM) | 15 µg/mL (≈ 29.8 µM) | 1.2 µM | 0.6 µg/mL (≈ 1.19 µM) |  |  |  | 
2 | CCCCC1=C(O)C(CCCC)(CCCC)C(=O)C(C(=O)CCc2ccccc2)=C1O [Compound 18, 3,5-dihydroxy-2-(3-phenylpropanoyl)-4,6,6-tributylcyclohexa-2,4-dienone] | 1.2 µg/mL (≈ 2.81 µM) | 80 µM | 24 µg/mL (≈ 56.3 µM) | 50 µg/mL (≈ 117 µM) | 11 µg/mL (≈ 25.8 µM) | 33 µM | 12 µg/mL (≈ 28.1 µM) | 0.049 µg/mL (≈ 0.115 µM) | 25 µg/mL (≈ 58.6 µM) | 9.3 µg/mL (≈ 21.8 µM) | 22 µM | < 0.5 µg/mL | 0.8 µg/mL (≈ 1.88 µM) | < 0.5 µg/mL | 0.6 µg/mL (≈ 1.41 µM) | 0.8 µg/mL (≈ 1.88 µM)
3 | COc1cccc(CCC(=O)C2=C(O)C(CCC(C)C)=C(O)C(CCC(C)C)(CCC(C)C)C2=O)c1 [Compound 5, 3,5-dihydroxy-2-(3-(3-methoxyphenyl)propanoyl)-4,6,6-triisopentylcyclohexa-2,4-dienone] | 2 µg/mL (≈ 4.01 µM) | 3.1 µM | 19 µg/mL (≈ 38.1 µM) | 50 µg/mL (≈ 100 µM) | 2 µg/mL (≈ 4.01 µM) | 1.1 µM | 7.1 µg/mL (≈ 14.2 µM) | 0.049 µg/mL (≈ 0.0983 µM) | 1.56 µg/mL (≈ 3.13 µM) | 3.5 µg/mL (≈ 7.02 µM) | 1.1 µM | 0.4 µg/mL (≈ 0.802 µM) |  |  |  | 
4 | CCCCCC1=C(O)C(CCCCC)(CCCCC)C(=O)C(C(=O)CCc2ccccc2)=C1O [Compound 19, 3,5-dihydroxy-2-(3-phenylpropanoyl)-4,6,6-tripentylcyclohexa-2,4-dienone] | 14 µg/mL (≈ 29.9 µM) | 13 µM | 19 µg/mL (≈ 40.5 µM) | 50 µg/mL (≈ 107 µM) | 9 µg/mL (≈ 19.2 µM) | 7.3 µM | 15 µg/mL (≈ 32 µM) | 0.049 µg/mL (≈ 0.105 µM) | 0.39 µg/mL (≈ 0.832 µM) | 15 µg/mL (≈ 32 µM) | 4.1 µM | 2 µg/mL (≈ 4.27 µM) | 0.7 µg/mL (≈ 1.49 µM) | 1 µg/mL (≈ 2.13 µM) | 2 µg/mL (≈ 4.27 µM) | 3 µg/mL (≈ 6.4 µM)
5 | COc1ccccc1CCC(=O)C1=C(O)C(CCC(C)C)=C(O)C(CCC(C)C)(CCC(C)C)C1=O [Compound 4, 3,5-dihydroxy-2-(3-(2-methoxyphenyl)propanoyl)-4,6,6-triisopentylcyclohexa-2,4-dienone] | 12 µg/mL (≈ 24.1 µM) | 4.3 µM | > 40 µg/mL | > 50 µg/mL | 3 µg/mL (≈ 6.02 µM) | 1.9 µM | 15 µg/mL (≈ 30.1 µM) | 0.098 µg/mL (≈ 0.197 µM) | > 50 µg/mL | 2.7 µg/mL (≈ 5.41 µM) | 1.6 µM | 0.6 µg/mL (≈ 1.2 µM) |  |  |  | 
6 | CC(C)CCC1=C(O)C(CCC(C)C)(CCC(C)C)C(=O)C(C(=O)CCc2ccc(Cl)cc2)=C1O [Compound 3, 3,5-dihydroxy-2-(3-(4-chlorophenyl)propanoyl)-4,6,6-triisopentylcyclohexa-2,4-dienone] | 8 µg/mL (≈ 15.9 µM) | 2.4 µM | 19 µg/mL (≈ 37.8 µM) | 50 µg/mL (≈ 99.4 µM) | 1 µg/mL (≈ 1.99 µM) | 0.63 µM | 19 µg/mL (≈ 37.8 µM) | 0.049 µg/mL (≈ 0.0974 µM) | > 50 µg/mL | 19 µg/mL (≈ 37.8 µM) | 0.77 µM | 0.4 µg/mL (≈ 0.795 µM) |  |  |  | 
7 | CC(C)CCC1=C(O)C(CCC(C)C)(CCC(C)C)C(=O)C(C(=O)CCc2cccc(Cl)c2)=C1O [Compound 2, 3,5-dihydroxy-2-(3-(3-chlorophenyl)propanoyl)-4,6,6-triisopentylcyclohexa-2,4-dienone] | 15 µg/mL (≈ 29.8 µM) | 5.9 µM | 19 µg/mL (≈ 37.8 µM) | 50 µg/mL (≈ 99.4 µM) | 1 µg/mL (≈ 1.99 µM) | 2.5 µM | 19 µg/mL (≈ 37.8 µM) | 0.098 µg/mL (≈ 0.195 µM) | > 50 µg/mL | 12 µg/mL (≈ 23.9 µM) | 2.2 µM | 0.5 µg/mL (≈ 0.994 µM) |  |  |  | 
8 | CCCC1=C(O)C(CCC)(CCC)C(=O)C(C(=O)CCc2ccccc2)=C1O [Compound 17, 3,5-dihydroxy-2-(3-phenylpropanoyl)-4,6,6-tripropylcyclohexa-2,4-dienone] | 1.3 µg/mL (≈ 3.38 µM) | > 400 µM | > 40 µg/mL | > 50 µg/mL | 3 µg/mL (≈ 7.8 µM) | 70 µM | 19 µg/mL (≈ 49.4 µM) |  |  | 15 µg/mL (≈ 39 µM) | 140 µM | 1 µg/mL (≈ 2.6 µM) | 2 µg/mL (≈ 5.2 µM) | 2 µg/mL (≈ 5.2 µM) | 1 µg/mL (≈ 2.6 µM) | 2 µg/mL (≈ 5.2 µM)
9 | COc1ccc(CCC(=O)C2=C(O)C(CCC(C)C)=C(O)C(CCC(C)C)(CCC(C)C)C2=O)cc1 [Compound 6, 3,5-dihydroxy-2-(3-(4-methoxyphenyl)propanoyl)-4,6,6-triisopentylcyclohexa-2,4-dienone] | 6 µg/mL (≈ 12 µM) | 3.4 µM | 19 µg/mL (≈ 38.1 µM) | 50 µg/mL (≈ 100 µM) | 12 µg/mL (≈ 24.1 µM) | 1.8 µM | 15 µg/mL (≈ 30.1 µM) | 0.098 µg/mL (≈ 0.197 µM) | > 50 µg/mL | 5.6 µg/mL (≈ 11.2 µM) | 1.2 µM | 0.6 µg/mL (≈ 1.2 µM) |  |  |  | 
10 | CCC1=C(O)C(CC)(CC)C(=O)C(C(=O)CCc2ccccc2)=C1O [Compound 16, 3,5-dihydroxy-2-(3-phenylpropanoyl)-4,6,6-triethylcyclohexa-2,4-dienone] | 5 µg/mL (≈ 14.6 µM) | > 400 µM | > 40 µg/mL | > 50 µg/mL | 19 µg/mL (≈ 55.5 µM) | > 400 µM | 19 µg/mL (≈ 55.5 µM) |  |  | 15 µg/mL (≈ 43.8 µM) | > 400 µM | 4 µg/mL (≈ 11.7 µM) | 6 µg/mL (≈ 17.5 µM) | 8 µg/mL (≈ 23.4 µM) | 5 µg/mL (≈ 14.6 µM) | 6 µg/mL (≈ 17.5 µM)
